Tested on: induced human hepatic stem cells (AFB1-1, NGC1-2)
Experiment: Long-term passage culture of induced human hepatic stem cells
Type: cell-based
Conditions: addition of 0.05-0.5 μM to the medium, passage culture for six months or longer
From the text: Induced human hepatic stem cells (AFB1-1, NGC1-2) were subjected to passage culture for six months or longer. The exemplary medium used includes mTeSR1 (STEMCELL Technologies/VERITAS), a bFGF-supplemented medium for primate ES/iPS cells (ReproCELL), or bFGF-supplemented ReproStem (ReproCELL). In the case of using MEFs, a collagen- or gelatin-coated culture dish was used, and in the case of not using MEFs, a matrigel-coated culture dish was used.

Cc1cccc(-c2nn(C(=S)Nc3ccccc3)cc2-c2ccnc3ccccc23)n1 [A-83-01]
proliferation rate and morphology: highly satisfactory proliferation rate and morphology | self-replication of induced human hepatic stem cells: useful for self-replication of induced human hepatic stem cells

— US20130023045A1, “INDUCED HEPATIC STEM CELL AND PROCESS FOR PRODUCTION THEREOF, AND APPLICATIONS OF THE CELL” (NATIONAL CANCER CENTER, priority 2010, published 2013)
